Reference: patent publication US20100298141A1, “SUBSTITUTED PYRIDINE N-OXIDE HERBICIDES” (E. I. DU PONT DE NEMOURS AND COMPANY, priority 2007, published 2010)

How the values were obtained:
eastern black nightshade = assay: Test C pre-/postemergence test; type: in vivo, Solanum ptycanthum
Procedure, shortened: (§1)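 Seeds were planted and treated preemergence with test chemical in a non-phytotoxic solvent mixture containing surfactant. Postemergence applications of the same formulation went onto plants 2 to 18 cm tall (1- to 4-leaf stage). A dash marks no test result.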

morningglory = assay: Test A pre-/postemergence greenhouse test; type: in vivo, Ipomoea spp.; settings: for Morningglory plant response rating: 0 to 100 scale
Procedure, shortened: (§2)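 Two application timings were run side by side in the greenhouse. Before emergence, compound went onto the soil surface of loam–sand pots as a directed spray; after emergence, plants at 2–10 cm and the one- to two-leaf stage were treated. Visual injury versus controls was rated at approximately day ten.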

Italian ryegrass = assay: Test C pre-/postemergence test; type: in vivo, Lolium multiflorum
Procedure, shortened: as §1

Goosegrass = assay: Test C pre-/postemergence test; type: in vivo, Eleusin indica
Procedure, shortened: as §1

umbrella sedge = assay: Test C flooded paddy test; type: in vivo, Cyperus difformis; settings: Flood
Procedure, shortened: (§3)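 Under a constant 3 cm flood, test compounds went directly into the paddy water. Following 13 to 15 days of greenhouse growth, treated species and controls were compared by eye.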

[1] = tested on: common (oilseed) sunflower; assay: Test C pre-/postemergence test; type: in vivo, Helianthus annuus; settings: for Sunflower plant response rating: preemergence, scale 0 (no effect) to 100 (complete control)
Procedure, shortened: as §1

redroot pigweed = assay: Test A pre-/postemergence greenhouse test; type: in vivo, Amaranthus retroflexus; settings: for Pigweed plant response rating: 0 to 100 scale
Procedure, shortened: as §2

yellow nutsedge = assay: Test C pre-/postemergence test; type: in vivo, Cyperus esculentus
Procedure, shortened: as §1

duck salad = assay: Test C flooded paddy test; type: in vivo, Heteranthera limosa; settings: Flood
Procedure, shortened: as §3

corn = assay: Test C pre-/postemergence test; type: in vivo, Zea mays
Procedure, shortened: as §1

wheat = assay: Test C pre-/postemergence test; type: in vivo, Triticum aestivum; settings: for Wheat plant response rating: preemergence, scale 0 (no effect) to 100 (complete control)
Procedure, shortened: as §1

crabgrass = assay: Test A pre-/postemergence greenhouse test; type: in vivo, Digitaria sanguinalis; settings: for Crabgrass, Large plant response rating: 0 to 100 scale
Procedure, shortened: as §2

common ragweed = assay: Test C pre-/postemergence test; type: in vivo, Ambrosia elation
Procedure, shortened: as §1

green foxtail = assay: Test C pre-/postemergence test; type: in vivo, Setaria viridis
Procedure, shortened: as §1

wild oat = assay: Test C pre-/postemergence test; type: in vivo, Avena fatua
Procedure, shortened: as §1

blackgrass = assay: Test C pre-/postemergence test; type: in vivo, Alopecurus myosuroides
Procedure, shortened: as §1

woolly cupgrass = assay: Test C pre-/postemergence test; type: in vivo, Eriochloa villosa
Procedure, shortened: as §1

[2] = 31 g ai/ha, Preemergence, scale 0 to 100
[3] = 62 g ai/ha, preemergence, scale 0 (no effect) to 100 (complete control)
[4] = preemergence, 125 g ai/ha, scale 0 (no effect) to 100 (complete control)
[5] = Postemergence, 125 g ai/ha, 0 is no effect, 100 is complete control
[6] = Postemergence, 500 g ai/ha, 0 is no effect, 100 is complete control
[7] = Preemergence, 125 g ai/ha, 0 no effect, 100 complete control
[8] = Preemergence, 500 g ai/ha, 0 to 100 scale where 0 is no effect and 100 is complete control
[9] = 31 g ai/ha, scale 0 to 100 (0 no effect, 100 complete control)
[10] = 62 g ai/ha, scale 0 to 100, 0 no effect, 100 complete control, 13 to 15 days
[11] = 125 g ai/ha, scale 0 to 100, 0 no effect, 100 complete control, 13 to 15 days
[12] = 250 g ai/ha, scale 0 to 100 (0 no effect, 100 complete control)

CC(c1c(C(F)(F)F)nn(C)c1Cl)S(=O)(=O)c1cccc[n+]1[O-] (stereo not drawn) [Compound 10]
Nightshade plant response rating (eastern black nightshade; [2]): 90
Nightshade plant response rating (eastern black nightshade; [3]): 98
Plant response rating (0 to 100), Nightshade (eastern black nightshade; Preemergence, 250 g ai/ha): 100
Nightshade plant response rating (eastern black nightshade; [4]): 100
Morningglory plant response rating (morningglory; [5]): 20
Morningglory plant response rating (morningglory; [6]): 90
Morningglory plant response rating (morningglory; [7]): 80
Plant response rating, Morningglory (morningglory; [8]): 90
Ryegrass, Italian plant response rating (Italian ryegrass; [2]): 20
Ryegrass, Italian plant response rating (Italian ryegrass; [3]): 40
Plant response rating (0 to 100), Ryegrass, Italian (Italian ryegrass; Preemergence, 250 g ai/ha): 98
Ryegrass, Italian plant response rating (Italian ryegrass; [4]): 90
Goosegrass plant response rating (Goosegrass; [2]): 100
Goosegrass plant response rating (Goosegrass; [3]): 100
Plant response rating (0 to 100), Goosegrass (Goosegrass; Preemergence, 250 g ai/ha): 100
Goosegrass plant response rating (Goosegrass; [4]): 100
Plant response rating, Sedge, Umbrella (umbrella sedge; [9]): 40
Plant response rating, Sedge, Umbrella (umbrella sedge; [10]): 80
Plant response rating, Sedge, Umbrella (umbrella sedge; [11]): 90
Plant response rating, Sedge, Umbrella (umbrella sedge; [12]): 90
Sunflower plant response rating ([1]; 62 g ai/ha): 0
Plant response rating (0 to 100), Sunflower ([1]; Preemergence, 250 g ai/ha): 100
Sunflower plant response rating ([1]; 125 g ai/ha): 85
Pigweed plant response rating (redroot pigweed; [5]): 30
Pigweed plant response rating (redroot pigweed; [6]): 60
Pigweed plant response rating (redroot pigweed; [7]): 100
Plant response rating, Pigweed (redroot pigweed; [8]): 100
Nutsedge, Yellow plant response rating (yellow nutsedge; [2]): 60
Nutsedge, Yellow plant response rating (yellow nutsedge; [3]): 98
Plant response rating (0 to 100), Nutsedge, Yellow (yellow nutsedge; Preemergence, 250 g ai/ha): 100
Nutsedge, Yellow plant response rating (yellow nutsedge; [4]): 98
Plant response rating, Ducksalad (duck salad; [9]): 30
Plant response rating, Ducksalad (duck salad; [10]): 80
Plant response rating, Ducksalad (duck salad; [11]): 85
Plant response rating, Ducksalad (duck salad; [12]): 90
Corn plant response rating (corn; [2]): 0
Corn plant response rating (corn; [3]): 5
Plant response rating (0 to 100), Corn (corn; Preemergence, 250 g ai/ha): 95
Corn plant response rating (corn; [4]): 60
Wheat plant response rating (wheat; 62 g ai/ha): 35
Plant response rating (0 to 100), Wheat (wheat; Preemergence, 250 g ai/ha): 80
Wheat plant response rating (wheat; 125 g ai/ha): 60
Crabgrass, Large plant response rating (crabgrass; [5]): 80
Crabgrass, Large plant response rating (crabgrass; [6]): 90
Crabgrass, Large plant response rating (crabgrass; [7]): 90
Plant response rating, Crabgrass, Large (crabgrass; [8]): 100
Ragweed plant response rating (common ragweed; [2]): 60
Ragweed plant response rating (common ragweed; [3]): 80
Plant response rating (0 to 100), Ragweed (common ragweed; Preemergence, 250 g ai/ha): 100
Ragweed plant response rating (common ragweed; [4]): 100
Foxtail, Green plant response rating (green foxtail; [2]): 70
Foxtail, Green plant response rating (green foxtail; [3]): 85
Plant response rating (0 to 100), Foxtail, Green (green foxtail; Preemergence, 250 g ai/ha): 100
Foxtail, Green plant response rating (green foxtail; [4]): 100
Oat, Wild plant response rating (wild oat; [2]): 0
Oat, Wild plant response rating (wild oat; [3]): 0
Plant response rating (0 to 100), Oat, Wild (wild oat; Preemergence, 250 g ai/ha): 65
Oat, Wild plant response rating (wild oat; [4]): 60
Blackgrass plant response rating (blackgrass; [2]): 0
Blackgrass plant response rating (blackgrass; [3]): 70
Plant response rating (0 to 100), Blackgrass (blackgrass; Preemergence, 250 g ai/ha): 100
Blackgrass plant response rating (blackgrass; [4]): 98
Cupgrass, Woolly plant response rating (woolly cupgrass; [2]): 75
Cupgrass, Woolly plant response rating (woolly cupgrass; [3]): 75
Plant response rating (0 to 100), Cupgrass, Woolly (woolly cupgrass; Preemergence, 250 g ai/ha): 100
Cupgrass, Woolly plant response rating (woolly cupgrass; [4]): 100
